Like-named read-outs stand apart in the source and are kept apart here.
Test system: BT474 breast cancer cells
Experiment: BT474 Four (4) Day Cell Viability Assay
Assay type: cell-based
Settings: Homo sapiens, BT-474, 96 h, BT474, 4 days, read-out: cellular viability; for viability at 10 µM: 32661 10 μM
Procedure: BT474 breast cancer cells that are Estrogen Receptor Positive and HER2+ were grown in 5% cFBS. 5,000 cells were seeded into each well of a 96-well plate and treated with escalating doses of lapatinib, fulvestrant, and 32661.

FC(F)(F)c1ccc2c(SCCCCCCn3cnc(CN4CCOCC4)c3)ccnc2c1 [Compound 0032661, 4-[[1-[6-[[7-(trifluoromethyl)-4-quinolyl]sulfanyl]hexyl]imidazol-4-yl]methyl]morpholine] was tested. Which viability at 7.5 µM (32661 7.5 μM, fulvestrant 3333.0 nM, lapatinib 3333.0 nM) did it give?
The viability at 7.5 µM was 1%.

What about the viability at 10 µM (fulvestrant 0.0 nM, lapatinib 0.0 nM) of the same molecule?
The viability at 10 µM was 90%.

And the viability at 10 µM (fulvestrant 0.0 nM, lapatinib 6.9 nM)?
The viability at 10 µM was 42%.

What about the viability at 10 µM (fulvestrant 0.0 nM, lapatinib 20.6 nM) of the same molecule?
Its viability at 10 µM is 38%.

What about the viability at 10 µM (fulvestrant 0.0 nM, lapatinib 61.7 nM) of the same molecule?
Its viability at 10 µM is 35%.

And the viability at 10 µM (fulvestrant 0.0 nM, lapatinib 185.2 nM)?
Its viability at 10 µM is 28%.

And the viability at 10 µM (fulvestrant 0.0 nM, lapatinib 555.6 nM)?
The viability at 10 µM was 28%.

What about the viability at 10 µM (fulvestrant 0.0 nM, lapatinib 1666.7 nM) of the same molecule?
The viability at 10 µM was 23%.

And the viability at 10 µM (fulvestrant 0.0 nM, lapatinib 3333.0 nM)?
Its viability at 10 µM is 5%.

And the viability at 10 µM (fulvestrant 6.9 nM, lapatinib 0.0 nM)?
Its viability at 10 µM is 90%.

And the viability at 10 µM (fulvestrant 6.9 nM, lapatinib 6.9 nM)?
Its viability at 10 µM is 38%.

And the viability at 10 µM (fulvestrant 6.9 nM, lapatinib 20.6 nM)?
Its viability at 10 µM is 35%.

What about the viability at 10 µM (fulvestrant 6.9 nM, lapatinib 61.7 nM) of the same molecule?
The viability at 10 µM was 33%.

What about the viability at 10 µM (fulvestrant 6.9 nM, lapatinib 185.2 nM) of the same molecule?
The viability at 10 µM was 27%.

And the viability at 10 µM (fulvestrant 6.9 nM, lapatinib 555.6 nM)?
Its viability at 10 µM is 24%.

What about the viability at 10 µM (fulvestrant 6.9 nM, lapatinib 1666.7 nM) of the same molecule?
The viability at 10 µM was 20%.

And the viability at 10 µM (fulvestrant 6.9 nM, lapatinib 3333.0 nM)?
The viability at 10 µM was 3%.

And the viability at 10 µM (fulvestrant 20.6 nM, lapatinib 0.0 nM)?
Its viability at 10 µM is 89%.

And the viability at 10 µM (fulvestrant 20.6 nM, lapatinib 6.9 nM)?
Its viability at 10 µM is 36%.

And the viability at 10 µM (fulvestrant 20.6 nM, lapatinib 20.6 nM)?
Its viability at 10 µM is 36%.

What about the viability at 10 µM (fulvestrant 20.6 nM, lapatinib 61.7 nM) of the same molecule?
Its viability at 10 µM is 33%.

What about the viability at 10 µM (fulvestrant 20.6 nM, lapatinib 185.2 nM) of the same molecule?
The viability at 10 µM was 28%.

What about the viability at 10 µM (fulvestrant 20.6 nM, lapatinib 555.6 nM) of the same molecule?
The viability at 10 µM was 23%.

What about the viability at 10 µM (fulvestrant 20.6 nM, lapatinib 1666.7 nM) of the same molecule?
Its viability at 10 µM is 20%.

What about the viability at 10 µM (fulvestrant 20.6 nM, lapatinib 3333.0 nM) of the same molecule?
Its viability at 10 µM is 3%.

And the viability at 10 µM (fulvestrant 61.7 nM, lapatinib 0.0 nM)?
The viability at 10 µM was 86%.

What about the viability at 10 µM (fulvestrant 61.7 nM, lapatinib 6.9 nM) of the same molecule?
Its viability at 10 µM is 37%.

And the viability at 10 µM (fulvestrant 61.7 nM, lapatinib 20.6 nM)?
Its viability at 10 µM is 35%.

What about the viability at 10 µM (fulvestrant 61.7 nM, lapatinib 61.7 nM) of the same molecule?
Its viability at 10 µM is 33%.

And the viability at 10 µM (fulvestrant 61.7 nM, lapatinib 185.2 nM)?
The viability at 10 µM was 27%.

What about the viability at 10 µM (fulvestrant 61.7 nM, lapatinib 555.6 nM) of the same molecule?
Its viability at 10 µM is 23%.

What about the viability at 10 µM (fulvestrant 61.7 nM, lapatinib 1666.7 nM) of the same molecule?
Its viability at 10 µM is 20%.

What about the viability at 10 µM (fulvestrant 61.7 nM, lapatinib 3333.0 nM) of the same molecule?
Its viability at 10 µM is 2%.

What about the viability at 10 µM (fulvestrant 185.2 nM, lapatinib 0.0 nM) of the same molecule?
Its viability at 10 µM is 86%.

And the viability at 10 µM (fulvestrant 185.2 nM, lapatinib 6.9 nM)?
Its viability at 10 µM is 33%.

What about the viability at 10 µM (fulvestrant 185.2 nM, lapatinib 20.6 nM) of the same molecule?
Its viability at 10 µM is 33%.

And the viability at 10 µM (fulvestrant 185.2 nM, lapatinib 61.7 nM)?
The viability at 10 µM was 31%.

What about the viability at 10 µM (fulvestrant 185.2 nM, lapatinib 185.2 nM) of the same molecule?
Its viability at 10 µM is 24%.

What about the viability at 10 µM (fulvestrant 185.2 nM, lapatinib 555.6 nM) of the same molecule?
Its viability at 10 µM is 23%.

What about the viability at 10 µM (fulvestrant 185.2 nM, lapatinib 1666.7 nM) of the same molecule?
The viability at 10 µM was 18%.

And the viability at 10 µM (fulvestrant 185.2 nM, lapatinib 3333.0 nM)?
The viability at 10 µM was 1%.

What about the viability at 10 µM (fulvestrant 555.6 nM, lapatinib 0.0 nM) of the same molecule?
The viability at 10 µM was 81%.

What about the viability at 10 µM (fulvestrant 555.6 nM, lapatinib 6.9 nM) of the same molecule?
Its viability at 10 µM is 31%.

And the viability at 10 µM (fulvestrant 555.6 nM, lapatinib 20.6 nM)?
The viability at 10 µM was 29%.

What about the viability at 10 µM (fulvestrant 555.6 nM, lapatinib 61.7 nM) of the same molecule?
The viability at 10 µM was 29%.

And the viability at 10 µM (fulvestrant 555.6 nM, lapatinib 185.2 nM)?
The viability at 10 µM was 24%.

What about the viability at 10 µM (fulvestrant 555.6 nM, lapatinib 555.6 nM) of the same molecule?
Its viability at 10 µM is 23%.

What about the viability at 10 µM (fulvestrant 555.6 nM, lapatinib 1666.7 nM) of the same molecule?
The viability at 10 µM was 18%.

And the viability at 10 µM (fulvestrant 555.6 nM, lapatinib 3333.0 nM)?
The viability at 10 µM was 1%.

And the viability at 10 µM (fulvestrant 1666.7 nM, lapatinib 0.0 nM)?
Its viability at 10 µM is 78%.

What about the viability at 10 µM (fulvestrant 1666.7 nM, lapatinib 6.9 nM) of the same molecule?
Its viability at 10 µM is 16%.

What about the viability at 10 µM (fulvestrant 1666.7 nM, lapatinib 20.6 nM) of the same molecule?
The viability at 10 µM was 16%.

What about the viability at 10 µM (fulvestrant 1666.7 nM, lapatinib 61.7 nM) of the same molecule?
Its viability at 10 µM is 15%.

And the viability at 10 µM (fulvestrant 1666.7 nM, lapatinib 185.2 nM)?
The viability at 10 µM was 16%.

What about the viability at 10 µM (fulvestrant 1666.7 nM, lapatinib 555.6 nM) of the same molecule?
The viability at 10 µM was 15%.

And the viability at 10 µM (fulvestrant 1666.7 nM, lapatinib 1666.7 nM)?
Its viability at 10 µM is 7%.

And the viability at 10 µM (fulvestrant 1666.7 nM, lapatinib 3333.0 nM)?
The viability at 10 µM was 0%.

What about the viability at 10 µM (fulvestrant 3333.0 nM, lapatinib 0.0 nM) of the same molecule?
Its viability at 10 µM is 55%.

What about the viability at 10 µM (fulvestrant 3333.0 nM, lapatinib 6.9 nM) of the same molecule?
The viability at 10 µM was 3%.

And the viability at 10 µM (fulvestrant 3333.0 nM, lapatinib 20.6 nM)?
Its viability at 10 µM is 3%.

And the viability at 10 µM (fulvestrant 3333.0 nM, lapatinib 61.7 nM)?
Its viability at 10 µM is 6%.

What about the viability at 10 µM (fulvestrant 3333.0 nM, lapatinib 185.2 nM) of the same molecule?
The viability at 10 µM was 2%.

What about the viability at 10 µM (fulvestrant 3333.0 nM, lapatinib 555.6 nM) of the same molecule?
The viability at 10 µM was 2%.

And the viability at 10 µM (fulvestrant 3333.0 nM, lapatinib 1666.7 nM)?
The viability at 10 µM was 1%.

And the viability at 10 µM (fulvestrant 3333.0 nM, lapatinib 3333.0 nM)?
Its viability at 10 µM is 0%.
